These results are taken from patent US12662490B2, “Heterocyclic compounds” (Hoffmann-La Roche Inc., priority 2019, dated 2026).

The assay has as its target T1, MAGL (Homo sapiens, UniProt Q99685).
T1 sequence (Q99685 1-303): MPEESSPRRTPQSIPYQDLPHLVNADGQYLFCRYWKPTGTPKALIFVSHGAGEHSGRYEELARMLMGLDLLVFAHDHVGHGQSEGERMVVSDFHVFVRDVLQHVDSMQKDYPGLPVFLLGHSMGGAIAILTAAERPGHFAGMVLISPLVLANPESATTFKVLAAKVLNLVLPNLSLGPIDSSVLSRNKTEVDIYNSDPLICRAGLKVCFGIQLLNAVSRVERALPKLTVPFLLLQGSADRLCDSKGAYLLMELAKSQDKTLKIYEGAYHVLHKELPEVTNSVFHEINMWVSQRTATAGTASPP
The assay can be described thus: 2-AG assay (MAGL inhibitory activity; hydrolysis of 2-arachidonoylglycerol to arachidonic acid followed by mass spectrometry). Format: biochemical. The following applies: 15 min preincubation at RT, 8 μM 2-arachidonoylglycerol, 30 min at RT, RapidFire MS readout. As to the method: Compounds were profiled for MAGL inhibitory activity by determining the enzymatic activity by following the hydrolysis of the natural substrate 2-arachidonoylglycerol (2-AG) resulting in arachidonic acid, which can be followed by mass spectrometry. This assay is hereinafter abbreviated “2-AG assay”.
The 2-AG assay was carried out in 384 well assay plates (PP, Greiner Cat #784201) in a total volume of 20 μL. Compound dilutions were made in […] (VWR Chemicals 23500.297) in a polypropylene plate in 3-fold dilution steps to give a final concentration range in the assay from 12.5 μM to […]. 0.25 μL compound dilutions (100% DMSO) were added to 9 μL MAGL in assay buffer (50 mM TRIS (GIBCO, 15567-027), 1 mM EDTA (Fluka, 03690-100 mL), 0.010 (v/v) Tween. After shaking, the plate was incubated for 15 min at RT. To start the reaction, 10 μL 2-arachidonoylglycerol in assay buffer was added. The final concentrations in the assay was […] and 8 μM 2-arachidonoylglyerol. After shaking and 30 min incubation at RT, the reaction was quenched by the addition of 40 μL of ACN containing 4 μM of d8-arachidonic acid. The amount of arachidonic acid was traced by an online SPE system (Agilent Rapidfire) coupled to a triple quadrupole mass spectrometer (Agilent 6460). A C18 SPE cartridge (G9205A) was used in an ACN/water liquid setup. The mass spectrometer was operated in negative electrospray mode following the mass transitions 303.1→259.1 for arachidonic acid and 311.1→267.0 for d8-arachidonic acid. The activity of the compounds was calculated based on the ratio of intensities [arachidonic acid/d8-arachidonic acid].
One may read the IC50 as the concentration at which inhibition is half-maximal. The low end stands for greater potency in that assay, the high end for weaker potency in that assay. `COc1cccc(C(=O)N2CCN3CC(c4ccc5c(c4)CC5)OCC3C2)c1Cl` (mixture of isomers) [Example 47, [3-(3-bicyclo[4.2.0]octa-1,3,5-trienyl)-3,4,6,7,9,9a-hexahydro-1H-pyrazino[2,1-c][1,4]oxazin-8-yl]-(2-chloro-3-methoxy-phenyl)methanone] showed an IC50 of 134 nM.

Take `COc1cccc(C(=O)N2CCN3CC(c4ccc(C(F)F)cc4)OCC3C2)c1Cl` (mixture of isomers) [Example 48, (2-chloro-3-methoxy-phenyl)-[3-[4-(difluoromethyl)phenyl]-3,4,6,7,9,9a-hexahydro-1H-pyrazino[2,1-c][1,4]oxazin-8-yl]methanone]: the midpoint of inhibition, the IC50, lay at 146 nM.

`O=C(c1cccc(-c2c[nH]nc2F)c1Cl)N1CCN2CC(c3ccc(C(F)(F)F)nc3)OC[C@@H]2C1` (mixture of isomers) [Example 68, [(9aS)-3-[6-(trifluoromethyl)-3-pyridyl]-3,4,6,7,9,9a-hexahydro-1H-pyrazino[2,1-c][1,4]oxazin-8-yl]-[2-chloro-3-(3-fluoro-1H-pyrazol-4-yl)phenyl]methanone] returned a half-inhibitory concentration (IC50) of 15.8 nM.

`O=C(c1cccc(-c2c[nH]nc2F)c1Cl)N1CCN2CC(c3ccc(Br)nc3)OC[C@@H]2C1` (mixture of isomers) [Example 70, [2-chloro-3-(3-fluoro-1H-pyrazol-4-yl)phenyl]-[(9aS)-3-(6-bromo-3-pyridyl)-3,4,6,7,9,9a-hexahydro-1H-pyrazino[2,1-c][1,4]oxazin-8-yl]methanone] came in with a half-inhibitory concentration (IC50) of 44.6 nM.

`O=C(c1cccc(-c2c[nH]nc2F)c1Cl)N1CCN2CC(c3ccc(OC(F)F)cc3)OC[C@@H]2C1` (mixture of isomers) [Example 73, (2-chloro-3-(3-fluoro-1H-pyrazol-4-yl)phenyl)((9aS)-3-(4-(difluoromethoxy)phenyl)hexahydropyrazino[2,1-c][1,4]oxazin-8(1H)-yl)methanone] gave an IC50 of 53.3 nM.

On to `COc1cccc(C(=O)N2CCN3C[C@@H](c4ccc(F)c(Cl)c4)OC[C@@H]3C2)c1Br` (racemic) [Example 2, (2-bromo-3-methoxy-phenyl)-[rac-(3R,9aS)-3-(3-chloro-4-fluoro-phenyl)-3,4,6,7,9,9a-hexahydro-1H-pyrazino[2,1-c][1,4]oxazin-8-yl]methanone], for which the IC50 amounted to 14.6 nM.

In the case of `C/C=C/c1cc([C@@H]2CN3CCN(C(=O)c4cccc(OC)c4Cl)C[C@H]3CO2)ccc1F` (racemic) [Example 10, (2-chloro-3-methoxy-phenyl)-[(3R,9aS)-3-[4-fluoro-3-[rac-(E)-prop-1-enyl]phenyl]-3,4,6,7,9,9a-hexahydro-1H-pyrazino[2,1-c][1,4]oxazin-8-yl]methanone], the IC50 came out at 179 nM.

For `COc1cccc(C(=O)N2CCN3C[C@H](c4ccc(Br)cn4)OC[C@H]3C2)c1Cl` (racemic) [Example 53, (2-chloro-3-methoxy-phenyl)-[rac-(3R,9aR)-3-(5-bromo-2-pyridyl)-3,4,6,7,9,9a-hexahydro-1H-pyrazino[2,1-c][1,4]oxazin-8-yl]methanone], the midpoint of inhibition, the IC50, lay at 76 nM.

The compound `COc1cccc(C(=O)N2CCN3C[C@@H](c4ccc(Br)cn4)OC[C@H]3C2)c1Cl` (racemic) [Example 54, (2-chloro-3-methoxy-phenyl)-[rac-(3S,9aR)-3-(5-bromo-2-pyridyl)-3,4,6,7,9,9a-hexahydro-1H-pyrazino[2,1-c][1,4]oxazin-8-yl]methanone] had an IC50 of 975 nM.

In turn, `COc1cccc(C(=O)N2CCN3C[C@H](c4cncc(Cl)c4)OC[C@@H]3C2)c1Cl` (racemic) [Example 58, (2-chloro-3-methoxy-phenyl)-[rac-(3S,9aS)-3-(5-chloro-3-pyridyl)-3,4,6,7,9,9a-hexahydro-1H-pyrazino[2,1-c][1,4]oxazin-8-yl]methanone] had an IC50 of 2220 nM.

For `COc1cccc(C(=O)N2CCN3C[C@@H](c4cncc(Cl)c4)OC[C@@H]3C2)c1Cl` (racemic) [Example 59, (2-chloro-3-methoxy-phenyl)-[rac-(3R,9aS)-3-(5-chloro-3-pyridyl)-3,4,6,7,9,9a-hexahydro-1H-pyrazino[2,1-c][1,4]oxazin-8-yl]methanone], the concentration for half-maximal inhibition (IC50) turned out to be 544 nM.

The compound `COc1cccc(C(=O)N2CCN3C[C@@H](c4sc(C)nc4C)OC[C@@H]3C2)c1Cl` (single isomer, unassigned) [Example 51] yielded an IC50 of 4980 nM.

Turning to `COc1cccc(C(=O)N2CCN3C[C@H](c4sc(C)nc4C)OC[C@H]3C2)c1Cl` (single isomer, unassigned) [Example 52], it took 1380 nM to reach half-maximal inhibition (IC50).

As for `COc1cccc(C(=O)N2CCN3C[C@@](O)(c4nc5ccccc5[nH]4)OC[C@@H]3C2)c1Cl` (single isomer, unassigned) [Example 60], the IC50 turned out to be 951 nM.

`COc1cccc(C(=O)N2CCN3C[C@](O)(c4nc5ccccc5[nH]4)OC[C@H]3C2)c1Cl` (single isomer, unassigned) [Example 61] returned an IC50 of 294 nM.

Turning to `COc1cccc(C(=O)N2CCN3C[C@@H](c4cccc(C(F)(F)F)n4)OC[C@@H]3C2)c1Cl` (single isomer, unassigned) [Example 63], 1310 nM corresponded to half-maximal inhibition (IC50).

Regarding `COc1cccc(C(=O)N2CCN3C[C@H](c4cc(Cl)c(Cl)cn4)OC[C@H]3C2)c1Cl` (single isomer, unassigned) [Example 66], it took 531 nM to reach half-maximal inhibition (IC50).

As to `COc1cccc(C(=O)N2CCN3C[C@@H](c4cc(Cl)c(Cl)cn4)OC[C@@H]3C2)c1Cl` (single isomer, unassigned) [Example 67], the IC50 stood at 8.4 nM.

`COc1cccc(C(=O)N2CCN3CC(c4ccc(F)c(Cl)c4)SC[C@@H]3C2)c1Cl` (single isomer, unassigned) [Example 161] displayed an IC50 of 3.1 nM.

Compound `COc1cccc(C(=O)N2CCN3CC(c4ccc(F)c(Cl)c4)SC[C@@H]3C2)c1Cl` (single isomer, unassigned) [Example 162] displayed an IC50 of 21.6 nM.

`COc1cccc(C(=O)N2CCN3C[C@@H](c4ccc(F)c(Cl)c4)OC[C@]3(C)C2)c1Cl` (stereo in doubt) [Example 32, (2-chloro-3-methoxy-phenyl)-[(rel-3R,9aS)-3-(3-chloro-4-fluoro-phenyl)-9a-methyl-1,3,4,6,7,9-hexahydropyrazino[2,1-c][1,4]oxazin-8-yl]methanone] displayed a half-inhibitory concentration (IC50) of 335 nM.

Compound `COc1cccc(C(=O)N2CCN3C[C@H](c4ccc(F)c(Cl)c4)OC[C@@]3(C)C2)c1Cl` (stereo in doubt) [Example 33, (2-chloro-3-methoxy-phenyl)-[(rel-3S,9aR)-3-(3-chloro-4-fluoro-phenyl)-9a-methyl-1,3,4,6,7,9-hexahydropyrazino[2,1-c][1,4]oxazin-8-yl]methanone] yielded an IC50 of 1910 nM.

Consider `COc1cccc(C(=O)N2CCN3C[C@@H](c4ccc(F)c(Cl)c4)OC[C@@H]3C2)c1Cl` [Example 1, [(3R,9aS)-3-(3-chloro-4-fluoro-phenyl)-3,4,6,7,9,9a-hexahydro-1H-pyrazino[2,1-c][1,4]oxazin-8-yl]-(2-chloro-3-methoxy-phenyl)methanone], for which the IC50 was 18.3 nM.

For the compound `O=C(c1cnc2sccc2c1Cl)N1CCN2C[C@@H](c3ccc(F)c(Cl)c3)OC[C@@H]2C1` [Example 5, (4-chlorothieno[2,3-b]pyridin-5-yl)-[(3R,9aS)-3-(3-chloro-4-fluoro-phenyl)-3,4,6,7,9,9a-hexahydro-1H-pyrazino[2,1-c][1,4]oxazin-8-yl]methanone], the half-maximal inhibitory concentration (IC50) came out at 28.2 nM.
